Experimental data reported in patent US11517555B2, “Solid soluble ferric pyrophosphate formulations, kits, and methods using the same” (ROCKWELL MEDICAL, INC., priority 2015, dated 2022).
“And” between values parts separate entries of the source, which are not always exact repeats. Equal values may be shown once.

What was measured:
[1] = healthy volunteers, 2.5-10 mg iv over 4 hours, 15 and 20 mg iv over 12 hours
[2] = aqueous solution
[3] = remark: listed apart in the source
Description: The angle of repose is related to resistance to movement between particles (interparticulate friction) and is the constant, three-dimensional angle relative to the horizontal base assumed by a cone-shaped pile of powder. In a typical assay, a symmetrical cone-shaped pile of powder is built by passing a solid particulate formulation through a funnel onto a vibration-free fixed base. The height of the funnel is maintained approximately 2 cm to 4 cm above the pile to minimize the effect of falling particles on the top of the pile. The angle of repose can then be determined by measuring the height and radius of the cone and calculating the angle of repose from the following equation: angle of repose=tan^−1(height/radius).

[4] = target: apotransferrin and monoferric transferrin (Homo sapiens, UniProt P02787)
Sequence of apotransferrin and monoferric transferrin (P02787 20-698): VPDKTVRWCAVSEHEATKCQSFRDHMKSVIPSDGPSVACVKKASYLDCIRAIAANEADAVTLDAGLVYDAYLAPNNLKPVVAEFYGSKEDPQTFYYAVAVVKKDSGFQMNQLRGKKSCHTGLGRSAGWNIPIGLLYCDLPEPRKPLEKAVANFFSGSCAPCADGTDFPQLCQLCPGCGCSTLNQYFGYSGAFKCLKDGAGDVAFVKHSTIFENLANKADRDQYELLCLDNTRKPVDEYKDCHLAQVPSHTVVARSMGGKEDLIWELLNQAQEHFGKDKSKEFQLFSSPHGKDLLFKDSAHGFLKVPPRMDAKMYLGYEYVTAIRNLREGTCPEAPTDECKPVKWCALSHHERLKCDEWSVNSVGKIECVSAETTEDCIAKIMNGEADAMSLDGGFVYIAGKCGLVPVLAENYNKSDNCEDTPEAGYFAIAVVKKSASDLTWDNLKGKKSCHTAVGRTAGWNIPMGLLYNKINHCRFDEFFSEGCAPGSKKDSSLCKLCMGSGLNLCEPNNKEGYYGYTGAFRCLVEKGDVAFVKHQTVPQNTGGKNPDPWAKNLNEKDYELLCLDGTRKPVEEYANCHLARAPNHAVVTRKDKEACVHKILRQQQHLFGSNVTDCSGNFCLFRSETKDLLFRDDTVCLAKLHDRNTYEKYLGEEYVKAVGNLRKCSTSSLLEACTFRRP

[5] = Cilas 1180LD laser diffraction, liquid dispersion in mineral oil, replicates 1-3, citrate

SMILES: O=C([O-])CC(O)(CC(=O)[O-])C(=O)[O-].O=P(O)(O)OP(=O)(O)O.[Fe+3] [SFP, Ferric pyrophosphate citrate]
- AUC of baseline-corrected serum iron [1]: increased in a dose proportional manner
- Cmax of baseline-corrected serum iron [1]: increased in a dose proportional manner
- D10 [5]: 3.57 μm and 3.63 μm and 3.68 μm
- D50 [5]: 12.73 μm and 12.66 μm and 12.58 μm
- D90 [5]: 41.08 μm and 40.18 μm and 39.23 μm
- primary particle size (light microscopy, dry powder and mineral oil dispersions): > 5 μm
- Fe(III)-ligand binding [2]: Covalent and stable in aqueous
- Angle of Response, Average ([3]; average of 3 replicate measurements): 41.5 °
- Angle of Response ([3]; single replicate measurements 1-3, citrate): 42.3 ° and 41.4 ° and 40.9 °
- Pharmacologic action [4]: Binds directly to apotransferrin and
